# From ChEMBL document CHEMBL5154933, “Development of Lipo-γ-AA Peptides as Potent Antifungal Agents” (J Med Chem, 2022)
# Active and inactive are the calls of the source. The calls are words filed in the database; no cut-off is given here.
# Columns and labels:
# Candida albicans [1] = assay: Induction of reactive oxygen species generation in Candida albicans SC5314 assessed as increase in fluorescence intensity incubated for 1 hr by DCF-DA staining based method; assay type: functional, organism-based; details: DDE = dose-dependent effect
# Cell membrane [2] = assay: Induction of membrane permeabilization in Candida albicans SC5314 assessed as distruption of fungal cell membrane by measuring PI positive cells at 8 times MIC measured after 1 hrs by propidium iodide and DAPI staining based fluorescence microscopic analysis; assay type: subcellular
# [3] = Selectivity ratio of HC50 for hemolytic activity in human RBC to MIC for antifungal activity against Candida albicans SC5314; assay type: toxicity; details: red blood cells (erythrocytes)
# Candida parapsilosis = assay: Antifungal activity against Candida parapsilosis ATCC 22019 assessed as fungal growth inhibition by broth microdilution assay; assay type: functional; details: Lodderomyces parapsilosis
# Cryptococcus neoformans [4] = assay: Fungicidal activity against Cryptococcus neoformans H99 at 8 times of MIC measured after 10 to 25 mins by time-kill assay; assay type: functional, organism-based; details: time 10-25 min
# Cell membrane [5] = assay: Induction of membrane permeabilization in Candida albicans SC5314 assessed as damage and rupture of fungal cell membrane at 8 times MIC incubated for 4 hrs by scanning electron microscopic analysis; assay type: subcellular
# Candida albicans [6] = assay: Potentiation of antifungal activity against fluconazole-sensitive Candida albicans YEM13 overexpressing efflux pump MDR1 gene assessed as fold reduction in fluconazole MIC at 1 ug/ml incubated for 24 hrs by checkerboard broth microdilution assay; assay type: functional; details: dose 1 µg/ml
# Candida albicans [7] = assay: Antifungal activity against Candida albicans CA17 assessed as fungal growth inhibition by broth microdilution assay; assay type: functional
# Candida albicans [8] = assay: Antifungal activity against Candida albicans 28A assessed as fungal growth inhibition by broth microdilution assay; assay type: functional
# [9] = Selectivity ratio of HC50 for hemolytic activity in human RBC to MIC for antifungal activity against Aspergillus fumigatus AF293; assay type: toxicity; details: red blood cells (erythrocytes)
# [10] = Selectivity ratio of HC50 for hemolytic activity in human RBC to MIC for antifungal activity against Cryptococcus neoformans 5-FC; assay type: toxicity; details: red blood cells (erythrocytes)
# [11] = Selectivity ratio of HC50 for hemolytic activity in human RBC to MIC for antifungal activity against Cryptococcus neoformans H99; assay type: toxicity; details: red blood cells (erythrocytes)
# Candida albicans [12] = assay: Fungicidal activity against Candida albicans SC5314 at 8 times MIC50 measured after 10 mins by time-kill assay; assay type: functional, organism-based
# [13] = Selectivity ratio of HC50 for hemolytic activity in human RBC to MIC for antifungal activity against Candida albicans CA17; assay type: toxicity; details: red blood cells (erythrocytes)
# Candida albicans [14] = assay: Synergistic antifungal activity against fluconazole-resistant Candida albicans CARG5 assessed as reduction in fluconazole MIC at 1 microg/ml incubated for 24 hrs by checkerboard broth microdilution assay ( Rvb = > 128 microg/ml); assay type: functional; details: dose 1 µg/ml
# [15] = Selectivity ratio of HC50 for hemolytic activity in human RBC to MIC for antifungal activity against Mucor racemosus MZ140; assay type: toxicity; details: red blood cells (erythrocytes)
# Cryptococcus neoformans [16] = assay: Antifungal activity against Cryptococcus neoformans 5-FC assessed as fungal growth inhibition by broth microdilution assay; assay type: functional
# [17] = Selectivity ratio of HC50 for hemolytic activity in human RBC to MIC for antifungal activity against Candida albicans 28A; assay type: toxicity; details: red blood cells (erythrocytes)
# Cryptococcus neoformans [18] = assay: Fungicidal activity against Cryptococcus neoformans H99 at 4 times MIC50 measured after 10 to 25 mins by time-kill assay; assay type: functional, organism-based; details: time 10-25 min
# [19] = Hemolytic activity in human RBC incubated for 1 hr by microplate reader method; assay type: toxicity, cell-based, Erythrocyte; details: red blood cells (erythrocytes)
# Cryptococcus neoformans [20] = assay: Antifungal activity against Cryptococcus neoformans H99 assessed as fungal growth inhibition by broth microdilution assay; assay type: functional
# Candida albicans [21] = assay: Increase in intracellular fluconazole accumulation in fluconazole-resistant Candida albicans CARG5 at 1 ug/ml incubated for 1 hr by fluorescence based analysis; assay type: functional, cell-based; details: dose 1.0 µg/ml
# Candida albicans [22] = assay: Effect on efflux pump function in Candida albicans CARG5 assessed as increase in Nile red fluorescence at 1 ug/ml incubated for 1 hr by FACScan flow cytometer analysis; assay type: functional; details: dose 1.0 µg/ml
# Candida albicans [23] = assay: Antifungal activity against Candida albicans SC5314 assessed as fungal growth inhibition by broth microdilution assay; assay type: functional
# [24] = Cytotoxicity against HEK293T cells measured after 48 hrs by CCK8 assay; assay type: toxicity, cell-based, HEK-293T; details: human
# [25] = Selectivity ratio of HC50 for hemolytic activity in human RBC to MIC for antifungal activity against Mucor racemosus R715; assay type: toxicity; details: red blood cells (erythrocytes)
# Pichia kudriavzevii = assay: Antifungal activity against Candida krusei ATCC6258 assessed as fungal growth inhibition by broth microdilution assay; assay type: functional
# Candida albicans [26] = assay: Antifungal activity against Candida albicans CARG5 assessed as fungal growth inhibition by broth microdilution assay; assay type: functional
# Aspergillus fumigatus [27] = assay: Antifungal activity against Aspergillus fumigatus AF293 assessed as fungal growth inhibition by broth microdilution assay; assay type: functional
# [28] = Toxicity against Galleria mellonella larva infected with Candida albicans SC5314 assessed as increase in survival rate at 8 mg/kg measured for 14 days; assay type: organism-based; details: in vivo, 336 h, time 14 day
# Candida albicans [29] = assay: Potentiation of antifungal activity against fluconazole-sensitive Candida albicans YEM12 overexpressing efflux pump MDR1 gene assessed as fold reduction in fluconazole MIC at 1 ug/ml incubated for 24 hrs by checkerboard broth microdilution assay; assay type: functional; details: dose 1 µg/ml
# [30] = Selectivity ratio of HC50 for hemolytic activity in human RBC to MIC for antifungal activity against Cryptococcus gattii R265; assay type: toxicity; details: red blood cells (erythrocytes)
# Mucor racemosus [31] = assay: Antifungal activity against Mucor racemosus MZ140 assessed as fungal growth inhibition by broth microdilution assay; assay type: functional
# Candida albicans [32] = assay: Fungicidal activity against Candida albicans SC5314 assessed as fungal growth inhibition incubated for 24 hrs by resazurin dye based assay; assay type: functional
# [33] = Selectivity ratio of HC50 for hemolytic activity in human RBC to MIC for antifungal activity against Candida albicans CARG5; assay type: toxicity; details: red blood cells (erythrocytes)
# Candida albicans [34] = assay: Antifungal activity against Candida albicans CARG5 infected in BALB/c mouse surgical wound model assessed as reduction in fungal burden smeared on wound at 8 mg/kg administered every 12 hrs for 48 hrs in presence of fluconazole; assay type: functional, organism-based
# [35] = Selectivity ratio of HC50 for hemolytic activity in human RBC to MIC for antifungal activity against Aspergillus fumigatus shjt40; assay type: toxicity; details: red blood cells (erythrocytes)
# [36] = Selectivity ratio of HC50 for hemolytic activity in human RBC to MIC for antifungal activity against Candida krusei ATCC6258; assay type: toxicity; details: red blood cells (erythrocytes)
# Mucor racemosus [37] = assay: Antifungal activity against Mucor racemosus R715 assessed as fungal growth inhibition by broth microdilution assay; assay type: functional
# [38] = Selectivity ratio of HC50 for hemolytic activity in human RBC to MIC for antifungal activity against Candida parapsilosis ATCC 22019; assay type: toxicity; details: red blood cells (erythrocytes)
# Candida albicans [39] = assay: Synergistic antifungal activity against fluconazole-resistant Candida albicans CARG5 assessed as fractional inhibitory concentration index incubated for 24 hrs by checkerboard broth microdilution assay; assay type: functional
# [40] = test system: Cryptococcus deuterogattii; assay: Antifungal activity against Cryptococcus gattii VGII R265 assessed as fungal growth inhibition by broth microdilution assay; assay type: functional, Cryptococcus gattii species complex
# Aspergillus fumigatus [41] = assay: Antifungal activity against Aspergillus fumigatus shjt40 assessed as fungal growth inhibition by broth microdilution assay; assay type: functional
smiles,measurement,setting,value
CCCCCCCCCCCCCCCC(=O)N[C@@H](CCCN)C(=O)N[C@@H](Cc1ccccc1)CN(CC(N)=O)C(=O)CCN,Activity,Candida albicans [1],Dde
same,Activity,Cell membrane [2],Active
same,selectivity ratio,[3],≤ 125
same,MIC50,Candida parapsilosis,2 µg/mL
same,Activity,Cryptococcus neoformans [4],Active
same,Activity,Cell membrane [5],Active
same,fold change (FC),Candida albicans [6],8
same,MIC50,Candida albicans [7],2 µg/mL
same,MIC50,Candida albicans [8],2 µg/mL
same,selectivity ratio,[9],≤ 125
same,selectivity ratio,[10],≤ 125
same,selectivity ratio,[11],≤ 125
same,Activity,Candida albicans [12],Active
same,selectivity ratio,[13],≤ 125
same,MIC50,Candida albicans [14],1 µg/mL
same,selectivity ratio,[15],≤ 125
same,MIC50,Cryptococcus neoformans [16],2 µg/mL
same,selectivity ratio,[17],≤ 125
same,Activity,Cryptococcus neoformans [18],Active
same,HC50 at 1 h,[19],> 250 µg/mL
same,MIC50,Cryptococcus neoformans [20],2 µg/mL
same,Activity,Candida albicans [21],Active
same,Activity,Candida albicans [22],Active
same,MIC50,Candida albicans [23],2 µg/mL
same,IC50 at 48 h,[24],32.2 µg/mL
same,selectivity ratio,[25],≤ 125
same,MIC50,Pichia kudriavzevii,2 µg/mL
same,MIC50,Candida albicans [26],2 µg/mL
same,MIC50,Aspergillus fumigatus [27],4 µg/mL
same,Activity,[28],Non-Toxic
same,fold change (FC),Candida albicans [29],2
same,selectivity ratio,[30],≤ 125
same,MIC50,Mucor racemosus [31],8 µg/mL
same,MFC,Candida albicans [32],4 µg/mL
same,selectivity ratio,[33],≤ 125
same,Activity,Candida albicans [34],Active
same,selectivity ratio,[35],≤ 125
same,selectivity ratio,[36],≤ 125
same,MIC50,Mucor racemosus [37],4 µg/mL
same,selectivity ratio,[38],≤ 125
same,fractional inhibitory concentration index (FICI),Candida albicans [39],<=0.5
same,MIC50,[40],2 µg/mL
same,MIC50,Aspergillus fumigatus [41],4 µg/mL
CCCCCCCCCCCCCCCC(=O)N[C@@H](CCCCN)C(=O)N[C@@H](Cc1ccccc1)CN(CC(N)=O)C(=O)CN,selectivity ratio,[3],≤ 125
same,MIC50,Candida parapsilosis,4 µg/mL
same,MIC50,Candida albicans [7],8 µg/mL
same,MIC50,Candida albicans [8],8 µg/mL
same,selectivity ratio,[10],≤ 125
same,selectivity ratio,[11],≤ 125
same,selectivity ratio,[13],≤ 125
same,MIC50,Cryptococcus neoformans [16],8 µg/mL
same,selectivity ratio,[17],≤ 125
same,HC50 at 1 h,[19],> 250 µg/mL
same,MIC50,Cryptococcus neoformans [20],8 µg/mL
same,MIC50,Candida albicans [23],4 µg/mL
same,MIC50,Pichia kudriavzevii,4 µg/mL
same,MIC50,Candida albicans [26],8 µg/mL
same,selectivity ratio,[30],≤ 125
same,selectivity ratio,[33],≤ 125
same,selectivity ratio,[36],≤ 125
same,selectivity ratio,[38],≤ 125
same,MIC50,[40],8 µg/mL
CCCCCCCC/C=C\CCCCCCCC(=O)N[C@@H](CCCCN)C(=O)N[C@@H](Cc1ccccc1)CN(CC(N)=O)C(=O)CCN,selectivity ratio,[3],≤ 125
same,MIC50,Candida parapsilosis,4 µg/mL
same,MIC50,Candida albicans [7],4 µg/mL
same,MIC50,Candida albicans [8],4 µg/mL
same,selectivity ratio,[10],≤ 125
same,selectivity ratio,[11],≤ 125
same,selectivity ratio,[13],≤ 125
same,MIC50,Cryptococcus neoformans [16],4 µg/mL
same,selectivity ratio,[17],≤ 125
same,HC50 at 1 h,[19],> 250 µg/mL
same,MIC50,Cryptococcus neoformans [20],4 µg/mL
same,MIC50,Candida albicans [23],4 µg/mL
same,MIC50,Pichia kudriavzevii,4 µg/mL
same,MIC50,Candida albicans [26],4 µg/mL
same,selectivity ratio,[30],≤ 125
same,selectivity ratio,[33],≤ 125
same,selectivity ratio,[36],≤ 125
same,selectivity ratio,[38],≤ 125
same,MIC50,[40],4 µg/mL
OC(Cn1cncn1)(Cn1cncn1)c1ccc(F)cc1F [FLUCONAZOLE],MIC50,Candida parapsilosis,2 µg/mL
same,MIC50,Candida albicans [7],> 128 µg/mL
same,MIC50,Candida albicans [8],> 128 µg/mL
same,MIC50,Cryptococcus neoformans [16],2 µg/mL
same,MIC50,Cryptococcus neoformans [20],4 µg/mL
same,MIC50,Candida albicans [23],1 µg/mL
same,MIC50,Pichia kudriavzevii,32 µg/mL
same,MIC50,Candida albicans [26],> 128 µg/mL
same,MIC50,Aspergillus fumigatus [27],> 32 µg/mL
same,Activity,[28],Non-Toxic
same,MIC50,Mucor racemosus [31],> 32 µg/mL
same,MFC,Candida albicans [32],> 16 µg/mL
same,MIC50,Mucor racemosus [37],> 32 µg/mL
same,MIC50,[40],4 µg/mL
same,MIC50,Aspergillus fumigatus [41],> 32 µg/mL
